Experiments:
[1] = unformulated CAP; cited from earlier work
[2] = Particle size by dynamic light scattering (DLS)

## CCCCCOC(=O)Nc1nc(=O)n([C@@H]2O[C@H](C)[C@@H](O)[C@H]2O)cc1F [CAP, N4-pentyloxycarbonyl-5-deoxy-5-fluoro-cytidine]
[1]
  Time within which the drug by itself is eliminated from the body: 0.5 to 1 h
[2]; CAP in DI water, DLS
  Size of the particles formed by CAP: 2-30 nm
[2]; high concentrations of CAP in DI water, size and correlation function fluctuate
  Stability of CAP micelles: not very stable

From US20190091162A1, “POLYMER-LIPID HYBRID NANOPARTICLES OF CAPECITABINE UTILIZING MICROMIXING AND CAPECITABINE AMPHIPHILIC PROPERTIES” (Jingjie PTM BioLab (Hangzhou) Co., Ltd., priority 2017, published 2019)
